# Test results reported in ChEMBL document CHEMBL1201862, “PubChem BioAssay data set” (2004).
#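 96-well plates; 48 h exposure; 5 concentrations. Endpoints by linear interpolation between flanking doses. Not reached: highest tested concentration assigned. GI50: concentration for 50% inhibition of growth.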 Active and inactive are the calls of the source. Rule as the data show it: active = GI50 up to about 1.1 µM and inactive = higher.
# Assays:
# Experiment in all cases: DTP human tumour cell line panel, 48 h
# K562 = test system: K562
# M14 = test system: M14
# SW-620 = test system: SW-620
# RXF 393 = test system: RXF 393
# KM12 = test system: KM12
# CAKI-1 = test system: CAKI-1
# SN12C = test system: SN12C
# SK-OV-3 = test system: SK-OV-3
# UACC-257 = test system: UACC-257
# SK-MEL-5 = test system: SK-MEL-5
# COLO 205 = test system: COLO 205
# OVCAR-3 = test system: OVCAR-3
# NCI-H226 = test system: NCI-H226
# A549 = test system: A549
# IGROV-1 = test system: IGROV-1
# UO-31 = test system: UO-31
# CCRF-CEM = test system: CCRF-CEM
# SR = test system: SR
Compound,GI50 (K562),GI50 (M14),GI50 (SW-620),GI50 (RXF 393),GI50 (KM12),GI50 (CAKI-1),GI50 (SN12C),GI50 (SK-OV-3),GI50 (UACC-257),GI50 (SK-MEL-5),GI50 (COLO 205),GI50 (OVCAR-3),GI50 (NCI-H226),GI50 (A549),GI50 (IGROV-1),GI50 (UO-31),GI50 (CCRF-CEM),GI50 (SR)
NC(=O)c1ccc([N+](=O)[O-])cc1,> 100 µM (inactive),> 100 µM (inactive),> 100 µM (inactive),> 100 µM (inactive),> 100 µM (inactive),> 100 µM (inactive),> 100 µM (inactive),> 100 µM (inactive),> 100 µM (inactive),> 100 µM (inactive),> 100 µM (inactive),> 100 µM (inactive),> 100 µM (inactive),> 100 µM (inactive),> 100 µM (inactive),> 100 µM (inactive),> 100 µM (inactive),
CCCCC1CC(c2ccc(Cl)cc2)=NO1 (stereo not given),> 100 µM (inactive),> 100 µM (inactive),> 100 µM (inactive),,> 100 µM (inactive),> 100 µM (inactive),> 100 µM (inactive),> 100 µM (inactive),> 100 µM (inactive),> 100 µM (inactive),> 100 µM (inactive),> 100 µM (inactive),> 100 µM (inactive),> 100 µM (inactive),> 100 µM (inactive),> 100 µM (inactive),> 100 µM (inactive),> 100 µM (inactive)
Cn1nc(-c2ccccc2)c(C(=O)/C=C/c2ccc(F)cc2)c(N2CCCC2)c1=O,7.82 µM (inactive),15.9 µM (inactive),15.6 µM (inactive),8.2 µM (inactive),,12.2 µM (inactive),16.9 µM (inactive),19.5 µM (inactive),,12.4 µM (inactive),15.1 µM (inactive),,,15.1 µM (inactive),21.4 µM (inactive),> 10 µM (inactive),5.36 µM (inactive),
Cc1ccccc1-n1c(C)nc2c1C(=O)c1ccccc1C2=O,37.7 µM (inactive),42 µM (inactive),40.5 µM (inactive),> 100 µM (inactive),58.9 µM (inactive),42.7 µM (inactive),52.4 µM (inactive),,35.2 µM (inactive),22.1 µM (inactive),,24.8 µM (inactive),48.3 µM (inactive),54.6 µM (inactive),,39.2 µM (inactive),50.2 µM (inactive),38.9 µM (inactive)
Oc1cn(-c2ccc(Cl)cc2)nc1-c1nnc(Nc2ccccc2)o1,,19.6 µM (inactive),19.1 µM (inactive),16 µM (inactive),17.7 µM (inactive),32.3 µM (inactive),16.1 µM (inactive),24.3 µM (inactive),21.3 µM (inactive),11.4 µM (inactive),21.4 µM (inactive),31.8 µM (inactive),8.39 µM (inactive),20.4 µM (inactive),15.2 µM (inactive),14.3 µM (inactive),,
COc1ccc(OC)c(NC(=O)C(=O)NNC(=O)c2sc(NNC(C)=O)nc2C)c1,17.1 µM (inactive),50.9 µM (inactive),22.6 µM (inactive),,39.4 µM (inactive),41.3 µM (inactive),33 µM (inactive),57.7 µM (inactive),23.6 µM (inactive),39.9 µM (inactive),,21.8 µM (inactive),32.7 µM (inactive),31.2 µM (inactive),53.5 µM (inactive),45.4 µM (inactive),16.9 µM (inactive),32.1 µM (inactive)
CC#CC1C2CCCC1(CSc1ccccc1)NC(=O)O2 (stereo not given),> 100 µM (inactive),> 100 µM (inactive),> 100 µM (inactive),> 100 µM (inactive),> 100 µM (inactive),> 100 µM (inactive),> 100 µM (inactive),> 100 µM (inactive),> 100 µM (inactive),> 100 µM (inactive),> 100 µM (inactive),> 100 µM (inactive),> 100 µM (inactive),> 100 µM (inactive),> 100 µM (inactive),> 100 µM (inactive),,> 100 µM (inactive)
O=C(c1ccc(Cl)cc1Cl)N(/N=C/C=C/c1ccccc1)c1nnc(-c2ccccc2)c(-c2ccccc2)n1,> 100 µM (inactive),,> 100 µM (inactive),> 100 µM (inactive),> 100 µM (inactive),,> 100 µM (inactive),> 100 µM (inactive),> 100 µM (inactive),> 100 µM (inactive),> 100 µM (inactive),> 100 µM (inactive),> 100 µM (inactive),> 100 µM (inactive),> 100 µM (inactive),76.4 µM (inactive),> 100 µM (inactive),
O=c1c2ccccc2nc(-c2ccccc2)n1NC1OC(CO)C(O)C(O)C1O (stereo not given),> 100 µM (inactive),> 100 µM (inactive),> 100 µM (inactive),,> 100 µM (inactive),> 100 µM (inactive),> 100 µM (inactive),> 100 µM (inactive),> 100 µM (inactive),> 100 µM (inactive),> 100 µM (inactive),> 100 µM (inactive),> 100 µM (inactive),> 100 µM (inactive),> 100 µM (inactive),> 100 µM (inactive),> 100 µM (inactive),
COc1cccc(N2C(=O)[C@H]3CC(C)c4c([nH]c5ccccc45)[C@H]3C2=O)c1 (stereo not given in full),46 µM (inactive),> 100 µM (inactive),> 10 µM (inactive),13.9 µM (inactive),57.5 µM (inactive),39.6 µM (inactive),78 µM (inactive),27.7 µM (inactive),42.9 µM (inactive),63.8 µM (inactive),36.1 µM (inactive),40.1 µM (inactive),93.5 µM (inactive),41.3 µM (inactive),> 100 µM (inactive),84.7 µM (inactive),64.4 µM (inactive),
CSc1ccc(/C=C2/C[N+](C)(C)C/C(=C/c3ccc(SC)cc3)C2=O)cc1,5.47 µM (inactive),13.5 µM (inactive),12.2 µM (inactive),17 µM (inactive),4.85 µM (inactive),,7.89 µM (inactive),,15.8 µM (inactive),,5.18 µM (inactive),15.9 µM (inactive),32.1 µM (inactive),21.9 µM (inactive),0.185 µM (active),> 100 µM (inactive),3.56 µM (inactive),8.57 µM (inactive)
O=C(O)c1cc(=O)c2cc(C(=O)c3cccs3)c(Cl)c(Cl)c2o1,> 100 µM (inactive),> 100 µM (inactive),> 100 µM (inactive),,> 100 µM (inactive),> 100 µM (inactive),> 100 µM (inactive),> 100 µM (inactive),> 100 µM (inactive),> 100 µM (inactive),,> 100 µM (inactive),> 100 µM (inactive),> 100 µM (inactive),> 100 µM (inactive),> 100 µM (inactive),> 100 µM (inactive),> 100 µM (inactive)
COc1ccc(COCC(Cn2ccnc2)OCc2ccc(C(=O)O)cc2)cc1 (stereo not given),> 100 µM (inactive),> 100 µM (inactive),> 100 µM (inactive),> 100 µM (inactive),> 100 µM (inactive),> 100 µM (inactive),> 100 µM (inactive),> 100 µM (inactive),> 100 µM (inactive),> 100 µM (inactive),> 100 µM (inactive),,> 100 µM (inactive),> 100 µM (inactive),> 100 µM (inactive),> 100 µM (inactive),> 100 µM (inactive),
